Source: patent US10300155B2, “Alpha-synuclein ligands” (Washington University, priority 2015, dated 2019)
Where “and” joins values, the source holds several entries; their conditions need not be identical. Identical values can stand only once. Like-named read-outs stand apart in the source and are kept apart here.

Biological target: T1, α-synuclein fibrils (Homo sapiens, UniProt P37840)
T1 construct: made in house; host or cells: E. coli BL21(DE3)RIL
Assay: ThT competitive assay for α-synuclein fibrils (Table 1)
Assay type: binding
Conditions: for EC50: α-synuclein fibrils
Protocol: Upon binding to amyloid fibrils, a peak at approximately 440 nm becomes dominant with the fluorescent emission maximum shifted to 480 nm. This is accompanied by a strong enhancement of the fluorescence.
α-Synuclein recombinant protein was produced in E. coli. […] Freshly transformed BL21 colonies were inoculated into 2 L baffled flasks containing 250 mL sterilized TB (1.2% bactotryptone, 2.4% yeast extract, 0.4% glycerol, 0.17 M KH2PO4, 0.72 M K2HPO4) with 50 μg/ml ampicillin, and incubated overnight at 37° C. with shaking.
To determine the concentration of fibrils, the reaction mixture (100 μL) was centrifuged at 18,000×g for 10 minutes to separate fibrils from monomer. The α-synuclein monomer and other soluble proteins in the supernatant were removed, and the fibril pellet was resuspended in 100 μL solution of Tris-HCl (20 mM) and NaCl (100 mM). This fibril suspension was used in a bicinchoninic acid (BCA) protein assay along with a bovine serum albumin (BSA) standard curve to determine the concentration of fibrils in the 72 hour fibril reaction mixture.
To prepare the fibrils for performing binding assays, the fibril reaction mixture prepared above was centrifuged at 18,000×g for 10 minutes.
Once the ThT-α-synuclein saturation binding curve and dissociation constant (Kd) were determined the competitive assay for determining the binding affinity of various test compounds was conducted. […] The mixture was incubated at room temperature for 60 minutes on the shaking plate. The fluorescent intensity for each cell was measured by the fluorescence reader at λex and λem. The Ki value for each compound was calculated by the corresponding inhibition curve.
The Ki values were derived from the EC50 values using the Cheng-Prusoff equation: Ki=EC50/(1+[radioligand]/Kd). See FIGS. 17.1-31.2 for the inhibition curves for each compound in the ThioT competitive binding assay.

[1] = average, read-out: Ki (nM) α-syn (avg)
[2] = individual determinations, read-out: Ki (nM) α-syn
[3] = average, read-out: EC50 (nM) EC50 (avg)
[4] = individual determinations, read-out: EC50 (nM) EC50

## COc1ccc2nc(/C=C/c3cccnc3C)ccc2c1 [TZ-36-44]
[1]
  Ki: 289 nM
[2]
  Ki: 289 nM
[3]
  EC50: 755 nM
[4]
  EC50: 755 nM

## COc1ccc2nc(/C=C/c3ccncc3Br)ccc2c1 [TZ-36-46]
[1]
  Ki: 168 nM
[2]
  Ki: 140 nM and 195 nM
[3]
  EC50: 437 nM
[4]
  EC50: 365 nM and 509 nM

## COc1ccc2nc(/C=C/c3ccncc3Cl)ccc2c1 [TZ-36-48]
[1]
  Ki: 414 nM
[2]
  Ki: 414 nM
[3]
  EC50: 1080 nM
[4]
  EC50: 1080 nM

## COc1ccc2nc(/C=C/c3cccs3)ccc2c1 [TZ-36-50]
[1]
  Ki: 403 nM
[2]
  Ki: 403 nM
[3]
  EC50: 1050 nM
[4]
  EC50: 1050 nM
